Test [1] deals with Transitional endoplasmic reticulum ATPase (Homo sapiens, UniProt P55072). Kind of test: Inhibition of p97 (unknown origin) incubated for 60 mins by ADP-Glo assay.
A further test deals with RPMI-8226. Kind of test: Cytotoxicity against human RPMI-8226 cells assessed as reduction in cell viability incubated for 72 hrs by CCK8 assay. Format: functional, cell-based.
A further test deals with A549. Description: Cytotoxicity against human A549 cells assessed as reduction in cell viability incubated for 72 hrs by CCK8 assay. The format is functional, cell-based. As to conditions: A549, 72 h; call rule not given here.
The mark [2] stands for this setting: Homo sapiens, RPMI-8226, 72 h, read-out: IC50.

Structures are written as SMILES.

Sequence of Transitional endoplasmic reticulum ATPase (P55072 whole entry): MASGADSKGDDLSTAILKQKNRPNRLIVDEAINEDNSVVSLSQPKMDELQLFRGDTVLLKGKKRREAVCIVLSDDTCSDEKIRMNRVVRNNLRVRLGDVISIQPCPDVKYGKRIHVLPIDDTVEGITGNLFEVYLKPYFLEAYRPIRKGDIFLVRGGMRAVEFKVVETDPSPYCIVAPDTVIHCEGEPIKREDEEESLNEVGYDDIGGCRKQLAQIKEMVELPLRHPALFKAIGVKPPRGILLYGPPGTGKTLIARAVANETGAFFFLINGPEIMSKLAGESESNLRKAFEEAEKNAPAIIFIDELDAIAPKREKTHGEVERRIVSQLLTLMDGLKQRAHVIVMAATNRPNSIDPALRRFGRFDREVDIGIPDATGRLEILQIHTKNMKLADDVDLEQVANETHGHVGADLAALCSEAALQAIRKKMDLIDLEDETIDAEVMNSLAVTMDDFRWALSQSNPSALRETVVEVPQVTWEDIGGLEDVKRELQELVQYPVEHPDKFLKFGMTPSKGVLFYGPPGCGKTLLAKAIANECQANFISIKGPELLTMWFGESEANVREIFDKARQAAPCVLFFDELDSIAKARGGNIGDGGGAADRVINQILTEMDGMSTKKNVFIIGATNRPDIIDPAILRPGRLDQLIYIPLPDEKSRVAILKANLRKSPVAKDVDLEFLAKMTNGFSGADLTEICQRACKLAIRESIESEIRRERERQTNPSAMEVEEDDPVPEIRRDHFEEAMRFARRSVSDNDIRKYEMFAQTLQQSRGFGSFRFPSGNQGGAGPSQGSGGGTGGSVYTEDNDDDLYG

On to `CC#CC(=O)Nc1cccc2c1cc(C)n2-c1ncc(OC)c(NCc2cccc(B(O)O)c2)n1`, for which the values for the IC50 (in test [1]; in the test with RPMI-8226 (setting [2]); in the test with A549) were 32 nM, 2400 nM and 6100 nM, respectively.
The matching figures for `COc1cnc(-n2c(C)cc3c(NC(=O)c4ccco4)cccc32)nc1NCc1cccc(B(O)O)c1`: 97.4 nM, 1900 nM and 3770 nM.
The matching figures for `Cc1cc2c(NC(=O)c3ccco3)cccc2n1-c1nc(NCc2cccc(B(O)O)c2)c2ccccc2n1`: 162 nM, 3200 nM and 5800 nM.
The matching figures for `C#CC(=O)Nc1cccc2c1cc(C)n2-c1nc2c(c(NCc3cccc(B(O)O)c3)n1)CCC2`: 91.4 nM, 1270 nM and 2100 nM.
`Cc1cc2c(NC(=O)CCl)cccc2n1-c1nc2c(c(NCc3cccc(B(O)O)c3)n1)CCC2` showed a concentration for half-maximal inhibition (IC50) in test [1] of 258 nM.
As for `CC#CC(=O)Nc1cccc2c1cc(C)n2-c1nc2c(c(NCc3cccc(B(O)O)c3)n1)CCC2`, the concentration for half-maximal inhibition (IC50) was 58.6 nM in test [1], 1730 nM with RPMI-8226 (setting [2]) and 3150 nM in the test on A549.
Consider `Cc1cc2c(NC(=O)CCCl)cccc2n1-c1nc2c(c(NCc3cccc(B(O)O)c3)n1)CCC2`, for which, in test [1], the concentration for half-maximal inhibition (IC50) was 436 nM.
With `Cc1cc2c(NS(C)(=O)=O)cccc2n1-c1nc2c(c(NCc3cccc(B(O)O)c3)n1)COCC2`, the IC50 was 117 nM in test [1], 5100 nM with RPMI-8226 (setting [2]) and above 10000 nM with A549.
With `Cc1cc2c(NC(=O)c3ccco3)cccc2n1-c1nc2c(c(NCc3cccc(B(O)O)c3)n1)CCC2`, the half-inhibitory concentration (IC50) in test [1] came to 57.3 nM; in the test with RPMI-8226 (setting [2]), 2300 nM; in the test on A549, 3550 nM.
For the compound `C=CC(=O)Nc1cccc2c1cc(C)n2-c1nc2c(c(NCc3cccc(B(O)O)c3)n1)CCC2`, the half-inhibitory concentration (IC50) in test [1] came out at 192 nM; in the test with RPMI-8226 (setting [2]), 2940 nM; with A549, 4750 nM.
Taken in the same sequence, the figures for `Cc1cc2c(NC(=O)c3ccco3)cccc2n1-c1nc2c(c(NCc3cccc(B(O)O)c3)n1)CCCC2` were 93.4 nM, 2330 nM and 3120 nM.
As to `Cc1cc2c(NC(=O)CC#N)cccc2n1-c1nc2c(c(NCc3cccc(B(O)O)c3)n1)CCC2`, inhibition in test [1] was half-maximal at 692 nM (IC50).
As to `Cc1cc2c(NS(C)(=O)=O)cccc2n1-c1nc2c(c(NCc3cccc(B(O)O)c3)n1)CCCC2`, the results for the IC50 (in test [1]; with RPMI-8226 (setting [2]); in the test with A549) were 45.6 nM, 1550 nM and 2420 nM, respectively.
With `CC#CC(=O)Nc1cccc2c1cc(C)n2-c1nc(NCc2cccc(B(O)O)c2)c2ccccc2n1`, the IC50 in test [1] came to 114 nM; in the test on RPMI-8226 (setting [2]), 2200 nM; in the test with A549, 5600 nM.
As to `Cc1cc2c(NC(=O)c3cscn3)cccc2n1-c1nc2c(c(NCc3cccc(B(O)O)c3)n1)CCC2`, the 50% inhibitory concentration (IC50) in test [1] came out at 468 nM.
With `Cc1cc2c(NC(=O)c3ccco3)cccc2n1-c1nc2c(c(NCc3cccc(B(O)O)c3)n1)COCC2`, the IC50 in test [1] is 91 nM; in the test on RPMI-8226 (setting [2]), 2700 nM; in the test on A549 it was 4380 nM.
The matching figures for `Cc1cc2c(NS(C)(=O)=O)cccc2n1-c1nc2c(c(NCc3cccc(B(O)O)c3)n1)CCC2`: 54.7 nM, 860 nM and 2800 nM.
On to `CC#CC(=O)Nc1cccc2c1cc(C)n2-c1nc2c(c(NCc3cccc(B(O)O)c3)n1)CCCC2`, for which the IC50 in test [1] was found to be 89.8 nM; in the test with RPMI-8226 (setting [2]), 1500 nM; with A549, 2150 nM.
The matching figures for `Cc1cc2c(NS(C)(=O)=O)cccc2n1-c1nc(NCc2cccc(B(O)O)c2)c2ccccc2n1`: 88.9 nM, 3600 nM and 5600 nM.
As to `CC#CC(=O)Nc1cccc2c1cc(C)n2-c1nc2c(c(NCc3cccc(B(O)O)c3)n1)COCC2`, the figures for the half-maximal inhibitory concentration (IC50) (in test [1]; in the test with RPMI-8226 (setting [2]); with A549) were 117 nM, 2900 nM and 4100 nM, respectively.
Take `Cc1cc2c(NC(=O)c3ccno3)cccc2n1-c1nc2c(c(NCc3cccc(B(O)O)c3)n1)CCC2`: the concentration for half-maximal inhibition (IC50) in test [1] worked out at 241 nM.
Take `C/C=C/C(=O)Nc1cccc2c1cc(C)n2-c1nc2c(c(NCc3cccc(B(O)O)c3)n1)CCC2`: the values for the IC50 (in test [1]; in the test on RPMI-8226 (rpmi-8226); in the test on A549) were 166 nM, “Not Active” and 4450 nM, respectively.

(Values after ChEMBL document CHEMBL4819067, “Discovery of novel pyrimidine molecules containing boronic acid as VCP/p97 Inhibitors” (Bioorg Med Chem, 2021).)
